# ± gives the expanded uncertainty stated by the source.
# Assay: molar heat capacity at constant pressure; xn = mol fraction of the nth substance listed
# Conditions: 101 kPa, Crystal, Small (less than 1 g) adiabatic calorimetry, x1 = 0.7
structure (smiles),measurement,setting,value
[Ba+2].[F-].[F-] [barium difluoride] + [F][La]([F])[F],molar heat capacity at constant pressure,10 K,0.3566 ± 0.2 J/K/mol
same,molar heat capacity at constant pressure,15 K,1.198 ± 0.2 J/K/mol
same,molar heat capacity at constant pressure,20 K,2.757 ± 0.21 J/K/mol
same,molar heat capacity at constant pressure,25 K,4.992 ± 0.22 J/K/mol
same,molar heat capacity at constant pressure,30 K,7.683 ± 0.23 J/K/mol
same,molar heat capacity at constant pressure,35 K,10.6 ± 0.24 J/K/mol
same,molar heat capacity at constant pressure,40 K,13.58 ± 0.25 J/K/mol
same,molar heat capacity at constant pressure,45 K,16.57 ± 0.27 J/K/mol
same,molar heat capacity at constant pressure,50 K,19.51 ± 0.28 J/K/mol
same,molar heat capacity at constant pressure,60 K,25.25 ± 0.3 J/K/mol
same,molar heat capacity at constant pressure,70 K,30.71 ± 0.32 J/K/mol
same,molar heat capacity at constant pressure,80 K,35.83 ± 0.34 J/K/mol
same,molar heat capacity at constant pressure,90 K,40.57 ± 0.36 J/K/mol
same,molar heat capacity at constant pressure,100 K,44.9 ± 0.38 J/K/mol
same,molar heat capacity at constant pressure,110 K,48.81 ± 0.4 J/K/mol
same,molar heat capacity at constant pressure,120 K,52.33 ± 0.41 J/K/mol
same,molar heat capacity at constant pressure,130 K,55.47 ± 0.42 J/K/mol
same,molar heat capacity at constant pressure,140 K,58.27 ± 0.43 J/K/mol
same,molar heat capacity at constant pressure,150 K,60.76 ± 0.44 J/K/mol
same,molar heat capacity at constant pressure,160 K,62.98 ± 0.45 J/K/mol
same,molar heat capacity at constant pressure,170 K,64.95 ± 0.46 J/K/mol
same,molar heat capacity at constant pressure,180 K,66.7 ± 0.47 J/K/mol
same,molar heat capacity at constant pressure,190 K,68.28 ± 0.47 J/K/mol
same,molar heat capacity at constant pressure,200 K,69.68 ± 0.48 J/K/mol
same,molar heat capacity at constant pressure,210 K,70.94 ± 0.48 J/K/mol
same,molar heat capacity at constant pressure,220 K,72.07 ± 0.49 J/K/mol
same,molar heat capacity at constant pressure,230 K,73.09 ± 0.49 J/K/mol
same,molar heat capacity at constant pressure,240 K,74.02 ± 0.5 J/K/mol
same,molar heat capacity at constant pressure,250 K,74.85 ± 0.5 J/K/mol
same,molar heat capacity at constant pressure,260 K,75.6 ± 0.5 J/K/mol
same,molar heat capacity at constant pressure,270 K,76.29 ± 0.51 J/K/mol
same,molar heat capacity at constant pressure,280 K,76.91 ± 0.51 J/K/mol
same,molar heat capacity at constant pressure,290 K,77.48 ± 0.51 J/K/mol
same,molar heat capacity at constant pressure,298.15 K,77.91 ± 0.51 J/K/mol
same,molar heat capacity at constant pressure,300 K,78.01 ± 0.51 J/K/mol
same,molar heat capacity at constant pressure,310 K,78.48 ± 0.51 J/K/mol
same,molar heat capacity at constant pressure,320 K,78.93 ± 0.52 J/K/mol
same,molar heat capacity at constant pressure,330 K,79.33 ± 0.52 J/K/mol
same,molar heat capacity at constant pressure,340 K,79.7 ± 0.52 J/K/mol

# From the NIST ThermoML archive (doi:10.1016/j.tca.2012.12.004)
